# Data as given in PubChem BioAssay (NCI).
#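 Tested at 5 concentrations; 48 h exposure; 96-well plates; endpoints linearly interpolated, else capped at highest concentration. At the TGI there is no net growth.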
# Assays:
# Assay in all cases: inhibition of tumour cell growth, NCI panel, 48 h
# 786-0 renal = system: 786-0 renal
# HCC-2998 colon = system: HCC-2998 colon
# T-47D breast = system: T-47D breast
# TK-10 renal = system: TK-10 renal
# SK-MEL-28 melanoma = system: SK-MEL-28 melanoma
# SNB-19 CNS = system: SNB-19 CNS
# SR leukemia = system: SR leukemia
# DU-145 prostate = system: DU-145 prostate
# NCI-H23 lung = system: NCI-H23 lung
# MCF7 breast = system: MCF7 breast
# HCT-116 colon = system: HCT-116 colon
# LOX IMVI melanoma = system: LOX IMVI melanoma
# UACC-62 melanoma = system: UACC-62 melanoma
# COLO 205 colon = system: COLO 205 colon
# K-562 leukemia = system: K-562 leukemia
# MOLT-4 leukemia = system: MOLT-4 leukemia
# SF-268 CNS = system: SF-268 CNS
# MALME-3M melanoma = system: MALME-3M melanoma
# CCRF-CEM leukemia = system: CCRF-CEM leukemia
# BT-549 breast = system: BT-549 breast
# A549 NSCLC = system: A549 NSCLC
# A498 renal = system: A498 renal
# M14 melanoma = system: M14 melanoma
# EKVX NSCLC = system: EKVX NSCLC
# UO-31 renal = system: UO-31 renal
# ACHN renal = system: ACHN renal
# HOP-62 NSCLC = system: HOP-62 NSCLC
# UACC-257 melanoma = system: UACC-257 melanoma
# MDA-N = system: MDA-N
# SF-539 CNS = system: SF-539 CNS
# NCI-H522 lung = system: NCI-H522 lung
# MDA-MB-231 breast = system: MDA-MB-231 breast
# NCI-H226 lung = system: NCI-H226 lung
# OVCAR-8 ovarian = system: OVCAR-8 ovarian
# SF-295 CNS = system: SF-295 CNS
# HCT-15 colon = system: HCT-15 colon
# HT29 colon = system: HT29 colon
# SK-OV-3 ovarian = system: SK-OV-3 ovarian
# RPMI-8226 leukemia = system: RPMI-8226 leukemia
# HL-60(TB) leukemia = system: HL-60(TB) leukemia
# IGROV1 ovarian = system: IGROV1 ovarian
# SW-620 colon = system: SW-620 colon
# SN12C renal = system: SN12C renal
# CAKI-1 renal = system: CAKI-1 renal
# HS 578T breast = system: HS 578T breast
# SK-MEL-5 melanoma = system: SK-MEL-5 melanoma
# KM12 colon = system: KM12 colon
# PC-3 prostate = system: PC-3 prostate
# NCI-H460 lung = system: NCI-H460 lung
# SNB-75 CNS = system: SNB-75 CNS
# MDA-MB-435 = system: MDA-MB-435
# OVCAR-3 ovarian = system: OVCAR-3 ovarian
# RXF 393 renal = system: RXF 393 renal
# OVCAR-5 ovarian = system: OVCAR-5 ovarian
# OVCAR-4 ovarian = system: OVCAR-4 ovarian
# NCI/ADR-RES ovarian = system: NCI/ADR-RES ovarian
# SK-MEL-2 melanoma = system: SK-MEL-2 melanoma
# U251 CNS = system: U251 CNS
# HOP-92 NSCLC = system: HOP-92 NSCLC
smiles,measurement,setting,value
COc1ccc(C2SC(N)=Nc3c2c(C)nn3C(=O)Cc2ccccc2)cc1 (stereo unspecified),TGI,786-0 renal,> 100 µM
same,TGI,HCC-2998 colon,> 100 µM
same,TGI,T-47D breast,> 100 µM
same,TGI,TK-10 renal,> 100 µM
same,TGI,SK-MEL-28 melanoma,> 100 µM
same,TGI,SNB-19 CNS,> 100 µM
same,TGI,SR leukemia,> 100 µM
same,TGI,DU-145 prostate,> 100 µM
same,TGI,NCI-H23 lung,> 100 µM
same,TGI,MCF7 breast,> 100 µM
same,TGI,HCT-116 colon,> 100 µM
same,TGI,LOX IMVI melanoma,> 100 µM
same,TGI,UACC-62 melanoma,> 100 µM
same,TGI,COLO 205 colon,> 100 µM
same,TGI,K-562 leukemia,> 100 µM
same,TGI,MOLT-4 leukemia,> 100 µM
same,TGI,SF-268 CNS,> 100 µM
same,TGI,MALME-3M melanoma,> 100 µM
same,TGI,CCRF-CEM leukemia,> 100 µM
same,TGI,BT-549 breast,> 100 µM
same,TGI,A549 NSCLC,> 100 µM
same,TGI,A498 renal,> 100 µM
same,TGI,M14 melanoma,> 100 µM
same,TGI,EKVX NSCLC,> 100 µM
same,TGI,UO-31 renal,> 100 µM
same,TGI,ACHN renal,> 100 µM
same,TGI,HOP-62 NSCLC,> 100 µM
same,TGI,UACC-257 melanoma,> 100 µM
same,TGI,MDA-N,> 100 µM
same,TGI,SF-539 CNS,> 100 µM
same,TGI,NCI-H522 lung,> 100 µM
same,TGI,MDA-MB-231 breast,> 100 µM
same,TGI,NCI-H226 lung,> 100 µM
same,TGI,OVCAR-8 ovarian,> 100 µM
same,TGI,SF-295 CNS,> 100 µM
same,TGI,HCT-15 colon,> 100 µM
same,TGI,HT29 colon,> 100 µM
same,TGI,SK-OV-3 ovarian,> 100 µM
same,TGI,RPMI-8226 leukemia,> 100 µM
same,TGI,HL-60(TB) leukemia,> 100 µM
same,TGI,IGROV1 ovarian,> 100 µM
same,TGI,SW-620 colon,> 100 µM
same,TGI,SN12C renal,> 100 µM
same,TGI,CAKI-1 renal,> 100 µM
same,TGI,HS 578T breast,> 100 µM
same,TGI,SK-MEL-5 melanoma,> 100 µM
same,TGI,KM12 colon,> 100 µM
same,TGI,PC-3 prostate,> 100 µM
same,TGI,NCI-H460 lung,> 100 µM
same,TGI,SNB-75 CNS,> 100 µM
same,TGI,MDA-MB-435,> 100 µM
NC(Cc1ccccc1)P(=O)(O)O (stereo unspecified),TGI,786-0 renal,> 100 µM
same,TGI,T-47D breast,> 100 µM
same,TGI,OVCAR-3 ovarian,> 100 µM
same,TGI,TK-10 renal,> 100 µM
same,TGI,SK-MEL-28 melanoma,> 100 µM
same,TGI,SNB-19 CNS,> 100 µM
same,TGI,SR leukemia,> 100 µM
same,TGI,RXF 393 renal,> 100 µM
same,TGI,OVCAR-5 ovarian,> 100 µM
same,TGI,OVCAR-4 ovarian,> 100 µM
same,TGI,NCI-H23 lung,> 100 µM
same,TGI,HCT-116 colon,> 100 µM
same,TGI,LOX IMVI melanoma,> 100 µM
same,TGI,UACC-62 melanoma,> 100 µM
same,TGI,K-562 leukemia,> 100 µM
same,TGI,MOLT-4 leukemia,> 100 µM
same,TGI,SF-268 CNS,> 100 µM
same,TGI,MALME-3M melanoma,> 100 µM
same,TGI,CCRF-CEM leukemia,> 100 µM
same,TGI,BT-549 breast,> 100 µM
same,TGI,A549 NSCLC,> 100 µM
same,TGI,A498 renal,> 100 µM
same,TGI,M14 melanoma,> 100 µM
same,TGI,EKVX NSCLC,> 100 µM
same,TGI,UO-31 renal,> 100 µM
same,TGI,NCI/ADR-RES ovarian,> 100 µM
same,TGI,ACHN renal,> 100 µM
same,TGI,HOP-62 NSCLC,> 100 µM
same,TGI,SK-MEL-2 melanoma,> 100 µM
same,TGI,UACC-257 melanoma,> 100 µM
same,TGI,MDA-N,> 100 µM
same,TGI,NCI-H522 lung,> 100 µM
same,TGI,MDA-MB-231 breast,> 100 µM
same,TGI,NCI-H226 lung,> 100 µM
same,TGI,OVCAR-8 ovarian,> 100 µM
same,TGI,SF-295 CNS,> 100 µM
same,TGI,HCT-15 colon,> 100 µM
same,TGI,U251 CNS,> 100 µM
same,TGI,HT29 colon,> 100 µM
same,TGI,RPMI-8226 leukemia,> 100 µM
same,TGI,HL-60(TB) leukemia,> 100 µM
same,TGI,IGROV1 ovarian,> 100 µM
same,TGI,SW-620 colon,> 100 µM
same,TGI,SN12C renal,> 100 µM
same,TGI,CAKI-1 renal,> 100 µM
same,TGI,HS 578T breast,> 100 µM
same,TGI,SK-MEL-5 melanoma,> 100 µM
same,TGI,KM12 colon,> 100 µM
same,TGI,PC-3 prostate,> 100 µM
same,TGI,NCI-H460 lung,> 100 µM
same,TGI,HOP-92 NSCLC,> 100 µM
same,TGI,MDA-MB-435,> 100 µM
CCn1c2ccccc2c2cc(N=Nc3ccc(C#N)cc3)ccc21,TGI,786-0 renal,> 100 µM
same,TGI,T-47D breast,> 100 µM
same,TGI,OVCAR-3 ovarian,> 100 µM
same,TGI,TK-10 renal,> 100 µM
same,TGI,SK-MEL-28 melanoma,> 100 µM
same,TGI,SNB-19 CNS,71.6 µM
same,TGI,DU-145 prostate,> 100 µM
same,TGI,OVCAR-5 ovarian,> 100 µM
same,TGI,OVCAR-4 ovarian,> 100 µM
same,TGI,NCI-H23 lung,68.6 µM
same,TGI,MCF7 breast,> 100 µM
same,TGI,HCT-116 colon,> 100 µM
same,TGI,LOX IMVI melanoma,61.8 µM
same,TGI,UACC-62 melanoma,> 100 µM
same,TGI,COLO 205 colon,> 100 µM
same,TGI,MOLT-4 leukemia,> 100 µM
same,TGI,SF-268 CNS,> 100 µM
same,TGI,MALME-3M melanoma,52.7 µM
same,TGI,CCRF-CEM leukemia,> 100 µM
same,TGI,BT-549 breast,57.1 µM
same,TGI,A549 NSCLC,> 100 µM
same,TGI,A498 renal,70 µM
same,TGI,M14 melanoma,> 100 µM
same,TGI,EKVX NSCLC,> 100 µM
same,TGI,UO-31 renal,> 100 µM
same,TGI,ACHN renal,> 100 µM
same,TGI,HOP-62 NSCLC,> 100 µM
same,TGI,SK-MEL-2 melanoma,> 100 µM
same,TGI,UACC-257 melanoma,> 100 µM
same,TGI,MDA-N,> 100 µM
same,TGI,SF-539 CNS,> 100 µM
same,TGI,NCI-H522 lung,> 100 µM
same,TGI,MDA-MB-231 breast,59 µM
same,TGI,NCI-H226 lung,> 100 µM
same,TGI,OVCAR-8 ovarian,> 100 µM
same,TGI,SF-295 CNS,> 100 µM
same,TGI,HCT-15 colon,> 100 µM
same,TGI,U251 CNS,> 100 µM
same,TGI,HT29 colon,> 100 µM
same,TGI,SK-OV-3 ovarian,> 100 µM
same,TGI,HL-60(TB) leukemia,> 100 µM
same,TGI,IGROV1 ovarian,> 100 µM
same,TGI,SW-620 colon,> 100 µM
same,TGI,SN12C renal,> 100 µM
same,TGI,CAKI-1 renal,> 100 µM
same,TGI,HS 578T breast,> 100 µM
same,TGI,SK-MEL-5 melanoma,> 100 µM
same,TGI,KM12 colon,> 100 µM
same,TGI,PC-3 prostate,> 100 µM
same,TGI,NCI-H460 lung,> 100 µM
same,TGI,HOP-92 NSCLC,79.7 µM
same,TGI,SNB-75 CNS,87.6 µM
same,TGI,MDA-MB-435,> 100 µM
